Columns and labels:
[1] = test system: carmine spider mite; assay: bioactivity test against carmine spider mite, airbrush spray; assay type: in vivo
How it was run: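 Broadbean seedlings infested with adult mites were sprayed with compound (acetone/methanol stock diluted in 0.1% Tween 80 water) by airbrush at 0.7 kg/cm^2, 0.5 ml. Three replicates were run. Mortality was scored after 72 hrs.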

[2] = test system: Green peach aphids (Myzus Persicae Sulzer); assay: bioactivity test against green peach aphid, airbrush foliar spray; assay type: in vivo
How it was run: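 Death rate was scored at 48 hrs, held at 25±1 C and 60±5% RH, following airbrush foliar spray (0.5 mL, 10 psi) onto cabbage leaf discs bearing about 15-30 aphids. Test solutions: compound dissolved in 1:1 acetone:methanol, brought to concentration with 0.1% tween 80 water.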

[3] = test system: armyworm; assay: bioactivity test against armyworm, airbrush spray; assay type: in vivo
[4] = test system: Diamond back moth; assay: insecticidal activity against diamond back moth, airbrush spray; assay type: in vivo
How it was run: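 Airbrush leaf-disc spray test: both faces of 2 cm cabbage discs received 0.5 ml of test solution at 0.7 kg/cm^2. Solutions were made in acetone:methanol (1:1) and brought to concentration with 0.1% Tween 80 in water. Ten second-instar larvae per disc, triplicates, were held at 25° C and 60˜70% R.H., with mortality recorded at 72 hrs.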

[5] = test system: cucumber downy mildew; assay: protectant activity in vivo against cucumber downy mildew
[6] = test system: wheat powdery mildew; assay: protectant activity in vivo against wheat powdery mildew
[7] = test system: corn rust; assay: protectant activity in vivo against corn rust; conditions: for control effect against corn rust (%): protectant activity
[8] = 100 ppm, mortality after 72 hrs
[9] = 600 ppm, mortality after 72 hrs

CCc1ncnc(NCCc2ccc(Oc3ccc(Cl)cc3)cc2)c1Cl [II-297]
pest or weed control at 10 µg/mL ([1]; Tetranychus cinnabarinus, 72 h, 10 mg/L, contrastive test, read-out: Insecticidal activity against carmine spider mite (% )): 74% | pest or weed control at 100 µg/mL ([1]; Tetranychus cinnabarinus, 72 h, 100 mg/L, contrastive test, read-out: Insecticidal activity against carmine spider mite (% )): 100% | pest or weed control at 600 µg/mL ([1]; Tetranychus cinnabarinus, 72 h, 600 mg/L, contrastive test, read-out: Insecticidal activity against carmine spider mite (% )): 100% | pest or weed control at 100 ppm ([1]; Tetranychus cinnabarinus, 72 h, 100 ppm, mortality after 72 hrs): 100% | pest or weed control at 600 ppm ([1]; Tetranychus cinnabarinus, 72 h, 600 ppm, mortality after 72 hrs): 100% | pest or weed control at 1.25 µg/mL ([2]; Myzus persicae, foliar, 48 h, 1.25 mg/L, contrastive test, read-out: Insecticidal activity against peach aphid (%)): 93% | pest or weed control at 2.5 µg/mL ([2]; Myzus persicae, foliar, 48 h, 2.5 mg/L, contrastive test, read-out: Insecticidal activity against peach aphid (%)): 100% | pest or weed control at 5 µg/mL ([2]; Myzus persicae, foliar, 48 h, 5 mg/L, contrastive test, read-out: Insecticidal activity against peach aphid (%)): 100% | pest or weed control at 10 µg/mL ([2]; Myzus persicae, foliar, 48 h, 10 mg/L, contrastive test, read-out: Insecticidal activity against peach aphid (%)): 100% | pest or weed control at 100 µg/mL ([2]; Myzus persicae, foliar, 48 h, 100 mg/L, contrastive test, read-out: Insecticidal activity against peach aphid (%)): 100% | pest or weed control at 600 µg/mL ([2]; Myzus persicae, foliar, 48 h, 600 mg/L, contrastive test, read-out: Insecticidal activity against peach aphid (%)): 100% | pest or weed control at 2.5 ppm ([2]; Myzus persicae, foliar, 48 h, 2.5 ppm, death rate after 48 hrs): 100% | pest or weed control at 5 ppm ([2]; Myzus persicae, foliar, 48 h, 5 ppm, death rate after 48 hrs): 100% | pest or weed control at 10 ppm ([2]; Myzus persicae, foliar, 48 h, 10 ppm, death rate after 48 hrs): 100% | pest or weed control at 100 ppm ([2]; Myzus persicae, foliar, 48 h, 100 ppm, death rate after 48 hrs): 100% | pest or weed control at 600 ppm ([2]; Myzus persicae, foliar, 48 h, 600 ppm, death rate after 48 hrs): 100% | pest or weed control at 10 µg/mL ([3]; 72 h, 10 mg/L, read-out: Insecticidal activity against armyworm (%)): 30% | pest or weed control at 100 µg/mL ([3]; 72 h, 100 mg/L, read-out: Insecticidal activity against armyworm (%)): 95% | pest or weed control at 600 µg/mL ([3]; 72 h, 600 mg/L, read-out: Insecticidal activity against armyworm (%)): 100% | pest or weed control at 100 ppm ([3]; 72 h, 100 ppm, mortality after 72 h): 80 to 99% | pest or weed control at 600 ppm ([3]; 72 h, 600 ppm, mortality after 72 h): 100% | pest or weed control at 600 ppm ([4]; 72 h, 600 ppm, mortality after 72 hrs, read-out: control (test results against diamond back moth)): 100% | pest or weed control at 25 µg/mL ([5]; Cucumis sativus, 168 h, read-out: control effect against cucumber downy mildew (%), 25 mg/L, protectant activity): 100% | pest or weed control at 50 µg/mL ([5]; Cucumis sativus, 168 h, read-out: control effect against cucumber downy mildew (%), 50 mg/L, protectant activity): 100% | pest or weed control at 100 µg/mL ([5]; Cucumis sativus, 168 h, read-out: control effect against cucumber downy mildew (%), 100 mg/L, protectant activity): 100% | pest or weed control at 400 µg/mL ([5]; Cucumis sativus, 168 h, read-out: control effect against cucumber downy mildew (%), 400 mg/L, protectant activity): 100% | pest or weed control at 25 ppm ([5]; Cucumis sativus, 168 h, read-out: protectant activity against cucumber downy mildew in vivo, 25 ppm): 100% | pest or weed control at 50 ppm ([5]; Cucumis sativus, 168 h, read-out: protectant activity against cucumber downy mildew in vivo, 50 ppm): 100% | pest or weed control at 100 ppm ([5]; Cucumis sativus, 168 h, read-out: protectant activity against cucumber downy mildew in vivo, 100 ppm): 100% | pest or weed control at 400 ppm ([5]; Cucumis sativus, 168 h, read-out: protectant activity against cucumber downy mildew in vivo, 400 ppm): 100% | pest or weed control at 0.4 µg/mL ([6]; Triticum aestivum, 168 h, read-out: control effect against wheat powdery mildew (%), 0.4 mg/L, protectant activity): 30% | pest or weed control at 1.6 µg/mL ([6]; Triticum aestivum, 168 h, read-out: control effect against wheat powdery mildew (%), 1.6 mg/L, protectant activity): 40% | pest or weed control at 6.25 µg/mL ([6]; Triticum aestivum, 168 h, read-out: control effect against wheat powdery mildew (%), 6.25 mg/L, protectant activity): 90% | pest or weed control at 25 µg/mL ([6]; Triticum aestivum, 168 h, read-out: control effect against wheat powdery mildew (%), 25 mg/L, protectant activity): 100% | pest or weed control at 100 µg/mL ([6]; Triticum aestivum, 168 h, read-out: control effect against wheat powdery mildew (%), 100 mg/L, protectant activity): 100% | pest or weed control at 400 µg/mL ([6]; Triticum aestivum, 168 h, read-out: control effect against wheat powdery mildew (%), 400 mg/L, protectant activity): 100% | pest or weed control at 6.25 ppm ([6]; Triticum aestivum, 168 h, read-out: protectant activity against wheat powdery mildew in vivo, 6.25 ppm): 80 to 99% | pest or weed control at 25 ppm ([6]; Triticum aestivum, 168 h, read-out: protectant activity against wheat powdery mildew in vivo, 25 ppm): 100% | pest or weed control at 100 ppm ([6]; Triticum aestivum, 168 h, read-out: protectant activity against wheat powdery mildew in vivo, 100 ppm): 100% | pest or weed control at 400 ppm ([6]; Triticum aestivum, 168 h, read-out: protectant activity against wheat powdery mildew in vivo, 400 ppm): 100% | pest or weed control at 6.25 ppm ([7]; Zea mays, 168 h, read-out: protectant activity against corn rust in vivo, 6.25 ppm): 80 to 99% | pest or weed control at 25 ppm ([7]; Zea mays, 168 h, read-out: protectant activity against corn rust in vivo, 25 ppm): 80 to 99% | pest or weed control at 100 ppm ([7]; Zea mays, 168 h, read-out: protectant activity against corn rust in vivo, 100 ppm): 100% | pest or weed control at 400 ppm ([7]; Zea mays, 168 h, read-out: protectant activity against corn rust in vivo, 400 ppm): 100%

CCc1ncnc(NCCc2ccc(Oc3ccc(C#N)cc3F)cc2)c1Cl [II-482]
Insecticidal activity against carmine spider mite (% ) ([1]; 2.5 mg/L): 93% | Insecticidal activity against carmine spider mite (% ) ([1]; 5 mg/L): 100% | Insecticidal activity against carmine spider mite (% ) ([1]; 10 mg/L, contrastive test): 100% | Insecticidal activity against carmine spider mite (% ) ([1]; 100 mg/L, contrastive test): 100% | Insecticidal activity against carmine spider mite (% ) ([1]; 600 mg/L, contrastive test): 100% | control against carmine spider mite ([1]; 5 ppm, mortality after 72 hrs): 100% | control against carmine spider mite ([1]; 10 ppm, mortality after 72 hrs): 100% | control against carmine spider mite [1, 8]: 100% | control against carmine spider mite [1, 9]: 100% | Insecticidal activity against peach aphid (%) ([2]; 1.25 mg/L, contrastive test): 100% | Insecticidal activity against peach aphid (%) ([2]; 2.5 mg/L, contrastive test): 100% | Insecticidal activity against peach aphid (%) ([2]; 5 mg/L, contrastive test): 100% | Insecticidal activity against peach aphid (%) ([2]; 10 mg/L, contrastive test): 100% | Insecticidal activity against peach aphid (%) ([2]; 100 mg/L, contrastive test): 100% | Insecticidal activity against peach aphid (%) ([2]; 600 mg/L, contrastive test): 100% | control (test results against green peach aphid) ([2]; 2.5 ppm, death rate after 48 hrs): 100% | control (test results against green peach aphid) ([2]; 5 ppm, death rate after 48 hrs): 100% | control (test results against green peach aphid) ([2]; 10 ppm, death rate after 48 hrs): 100% | control (test results against green peach aphid) ([2]; 100 ppm, death rate after 48 hrs): 100% | control (test results against green peach aphid) ([2]; 600 ppm, death rate after 48 hrs): 100% | Insecticidal activity against armyworm (%) ([3]; 10 mg/L): 80% | Insecticidal activity against armyworm (%) ([3]; 100 mg/L): 100% | Insecticidal activity against armyworm (%) ([3]; 600 mg/L): 100% | control (test results against armyworm) ([3]; 100 ppm, mortality after 72 h): 100% | control (test results against armyworm) ([3]; 600 ppm, mortality after 72 h): 100% | Insecticidal activity against diamond back moth (%) ([4]; 10 mg/L): 60% | Insecticidal activity against diamond back moth (%) ([4]; 100 mg/L): 100% | Insecticidal activity against diamond back moth (%) ([4]; 600 mg/L): 100% | control (test results against diamond back moth) [4, 8]: 100% | control (test results against diamond back moth) [4, 9]: 100% | protectant activity against cucumber downy mildew in vivo ([5]; 25 ppm): 100% | protectant activity against cucumber downy mildew in vivo ([5]; 50 ppm): 100% | protectant activity against cucumber downy mildew in vivo ([5]; 100 ppm): 100% | protectant activity against cucumber downy mildew in vivo ([5]; 400 ppm): 100% | control effect against wheat powdery mildew (%) ([6]; 6.25 mg/L, protectant activity): 98% | control effect against wheat powdery mildew (%) ([6]; 25 mg/L, protectant activity): 100% | control effect against wheat powdery mildew (%) ([6]; 100 mg/L, protectant activity): 100% | control effect against wheat powdery mildew (%) ([6]; 400 mg/L, protectant activity): 100% | protectant activity against wheat powdery mildew in vivo ([6]; 25 ppm): 100% | protectant activity against wheat powdery mildew in vivo ([6]; 100 ppm): 100% | protectant activity against wheat powdery mildew in vivo ([6]; 400 ppm): 100% | control effect against corn rust (%) ([7]; 6.25 mg/L): 100% | control effect against corn rust (%) ([7]; 25 mg/L): 100% | control effect against corn rust (%) ([7]; 100 mg/L): 100% | control effect against corn rust (%) ([7]; 400 mg/L): 100% | protectant activity against corn rust in vivo ([7]; 6.25 ppm): 100% | protectant activity against corn rust in vivo ([7]; 25 ppm): 100% | protectant activity against corn rust in vivo ([7]; 100 ppm): 100% | protectant activity against corn rust in vivo ([7]; 400 ppm): 100%
